Experimental findings from patent publication US10189816B2, “Substituted pyridines as inhibitors of human immunodeficiency virus replication” (priority 2015, dated 2019) are described below.

Read-outs that look alike come from different tables or passages of the source.

The experiment deals with NL-RLuc virus. Nature of the experiment: Inhibition of HIV replication (NL-RLuc reporter virus in MT-2 cells, luciferase readout). The format is cell-based. The following applies: Human immunodeficiency virus 1, MT2, 120 h. The gist of the method: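 Antiviral EC50 came from luciferase signal after 5-day multicycle replication of NL-RLuc virus in MT-2 cells with serially diluted compound (RPMI 1640, 10% heat-inactivated FBS), fitted by the median effect equation over at least 2 experiments.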

With `Cc1nc(C)c([C@H](OC(C)(C)C)C(=O)O)c(N2CCC(C)(C)CC2)c1-c1ccc2c(c1)CCN(Cc1cccc(F)c1C)C2` [Compound 82, (S)-2-(tert-butoxy)-2-(4-(4,4-dimethylpiperidin-1-yl)-5-(2-(3-fluoro-2-methylbenzyl)-1,2,3,4-tetrahydroisoquinolin-6-yl)-2,6-dimethylpyridin-3-yl)acetic acid], the EC50 (read-out: Activity) was below 0.1 µM.

On to `COc1cc(F)c(CN2CCc3cc(-c4c(C)nc(C)c([C@H](OC(C)(C)C)C(=O)O)c4N4CCC(C)(C)CC4)ccc3C2)cc1F` [Compound 83, (S)-2-(tert-butoxy)-2-(5-(2-(2,5-difluoro-4-methoxybenzyl)-1,2,3,4-tetrahydroisoquinolin-6-yl)-4-(4,4-dimethylpiperidin-1-yl)-2,6-dimethylpyridin-3-yl)acetic acid], for which the EC50 (read-out: Activity) is below 0.1 µM.

Consider `Cc1nc(C)c([C@H](OC(C)(C)C)C(=O)O)c(N2CCC(C)(C)CC2)c1-c1ccc2c(c1)CCN(Cc1cc(Cl)cc(Cl)c1OCc1ccccc1)C2` [Compound 85, (S)-2-(5-(2-(2-(benzyloxy)-3,5-dichlorobenzyl)-1,2,3,4-tetrahydroisoquinolin-6-yl)-4-(4,4-dimethylpiperidin-1-yl)-2,6-dimethylpyridin-3-yl)-2-(tert-butoxy)acetic acid], for which the EC50 (read-out: Activity) was below 0.1 µM.

Turning to `COc1cc(F)c(F)cc1CN1CCc2cc(-c3c(C)nc(C)c([C@H](OC(C)(C)C)C(=O)O)c3N3CCC(C)(C)CC3)ccc2C1` [Compound 86, (S)-2-(tert-butoxy)-2-(5-(2-(4,5-difluoro-2-methoxybenzyl)-1,2,3,4-tetrahydroisoquinolin-6-yl)-4-(4,4-dimethylpiperidin-1-yl)-2,6-dimethylpyridin-3-yl)acetic acid], the EC50 (read-out: Activity) is below 0.1 µM.

Take `COc1ccc(F)c(F)c1CN1CCc2cc(-c3c(C)nc(C)c([C@H](OC(C)(C)C)C(=O)O)c3N3CCC(C)(C)CC3)ccc2C1` [Compound 87, (S)-2-(tert-butoxy)-2-(5-(2-(2,3-difluoro-6-methoxybenzyl)-1,2,3,4-tetrahydroisoquinolin-6-yl)-4-(4,4-dimethylpiperidin-1-yl)-2,6-dimethylpyridin-3-yl)acetic acid]: where the note is “read-out: Activity”, the EC50 was below 0.1 µM.

On to `Cc1nc(C)c([C@H](OC(C)(C)C)C(=O)O)c(N2CCC(C)(C)CC2)c1-c1ccc2c(c1)CCN(Cc1ccccc1OCCO)C2` [Compound 88, (S)-2-(tert-butoxy)-2-(4-(4,4-dimethylpiperidin-1-yl)-5-(2-(2-(2-hydroxyethoxy)benzyl)-1,2,3,4-tetrahydroisoquinolin-6-yl)-2,6-dimethylpyridin-3-yl)acetic acid], for which the EC50 reads like this: (read-out: Activity) below 0.1 µM; (read-out: EC50 μM) 0.012 µM.

As for `CCOc1cc(Cl)cc(Cl)c1CN1CCc2cc(-c3c(C)nc(C)c([C@H](OC(C)(C)C)C(=O)O)c3N3CCC(C)(C)CC3)ccc2C1` [Compound 90, (S)-2-(tert-butoxy)-2-(5-(2-(2,4-dichloro-6-ethoxybenzyl)-1,2,3,4-tetrahydroisoquinolin-6-yl)-4-(4,4-dimethylpiperidin-1-yl)-2,6-dimethylpyridin-3-yl)acetic acid], where the note is “read-out: Activity”, the EC50 was below 0.1 µM.

For `COc1ccc(CN2CCc3cc(-c4c(C)nc(C)c([C@H](OC(C)(C)C)C(=O)O)c4N4CCC(C)(C)CC4)ccc3C2)c(Cl)c1Cl` [Compound 91, (S)-2-(tert-butoxy)-2-(5-(2-(2,3-dichloro-4-methoxybenzyl)-1,2,3,4-tetrahydroisoquinolin-6-yl)-4-(4,4-dimethylpiperidin-1-yl)-2,6-dimethylpyridin-3-yl)acetic acid], under “read-out: Activity”, the EC50 was below 0.1 µM.

With `COc1ccc(F)c(CN2CCc3cc(-c4c(C)nc(C)c([C@H](OC(C)(C)C)C(=O)O)c4N4CCC(C)(C)CC4)ccc3C2)c1F` [Compound 92, (S)-2-(tert-butoxy)-2-(5-(2-(2,6-difluoro-3-methoxybenzyl)-1,2,3,4-tetrahydroisoquinolin-6-yl)-4-(4,4-dimethylpiperidin-1-yl)-2,6-dimethylpyridin-3-yl)acetic acid], the EC50 (read-out: Activity) was below 0.1 µM.

As to `COc1cc(CN2CCc3cc(-c4c(C)nc(C)c([C@H](OC(C)(C)C)C(=O)O)c4N4CCC(C)(C)CC4)ccc3C2)c(F)cc1Cl` [Compound 93, (S)-2-(tert-butoxy)-2-(5-(2-(4-chloro-2-fluoro-5-methoxybenzyl)-1,2,3,4-tetrahydroisoquinolin-6-yl)-4-(4,4-dimethylpiperidin-1-yl)-2,6-dimethylpyridin-3-yl)acetic acid], the EC50 (read-out: Activity) was below 0.1 µM.

Turning to `COc1cc(CN2CCc3cc(-c4c(C)nc(C)c([C@H](OC(C)(C)C)C(=O)O)c4N4CCC(C)(C)CC4)ccc3C2)c(F)cc1F` [Compound 94, (S)-2-(tert-butoxy)-2-(5-(2-(2,4-difluoro-5-methoxybenzyl)-1,2,3,4-tetrahydroisoquinolin-6-yl)-4-(4,4-dimethylpiperidin-1-yl)-2,6-dimethylpyridin-3-yl)acetic acid], the EC50 (read-out: Activity) was below 0.1 µM.

With `COc1c(F)cc(CN2CCc3cc(-c4c(C)nc(C)c([C@H](OC(C)(C)C)C(=O)O)c4N4CCC(C)(C)CC4)ccc3C2)cc1F` [Compound 95, (S)-2-(tert-butoxy)-2-(5-(2-(3,5-difluoro-4-methoxybenzyl)-1,2,3,4-tetrahydroisoquinolin-6-yl)-4-(4,4-dimethylpiperidin-1-yl)-2,6-dimethylpyridin-3-yl)acetic acid], the EC50 (read-out: Activity) was below 0.1 µM.

For the compound `Cc1nc(C)c([C@H](OC(C)(C)C)C(=O)O)c(N2CCC(C)(C)CC2)c1-c1ccc2c(c1)CCN(Cc1cc(F)cc(F)c1F)C2` [Compound 96, (S)-2-(tert-butoxy)-2-(4-(4,4-dimethylpiperidin-1-yl)-2,6-dimethyl-5-(2-(2,3,5-trifluorobenzyl)-1,2,3,4-tetrahydroisoquinolin-6-yl)pyridin-3-yl)acetic acid], the EC50 was below 0.1 µM (read-out: Activity) and 0.003 µM (read-out: EC50 μM).

Regarding `COc1ccc(CN2CCc3cc(-c4c(C)nc(C)c([C@H](OC(C)(C)C)C(=O)O)c4N4CCC(C)(C)CC4)ccc3C2)cc1F` [Compound 97, (S)-2-(tert-butoxy)-2-(4-(4,4-dimethylpiperidin-1-yl)-5-(2-(3-fluoro-4-methoxybenzyl)-1,2,3,4-tetrahydroisoquinolin-6-yl)-2,6-dimethylpyridin-3-yl)acetic acid], under “read-out: Activity”, the EC50 is below 0.1 µM.

Turning to `COc1c(CN2CCc3cc(-c4c(C)nc(C)c([C@H](OC(C)(C)C)C(=O)O)c4N4CCC(C)(C)CC4)ccc3C2)cccc1C(F)(F)F` [Compound 98, (S)-2-(tert-butoxy)-2-(4-(4,4-dimethylpiperidin-1-yl)-5-(2-(2-methoxy-3-(trifluoromethyl)benzyl)-1,2,3,4-tetrahydroisoquinolin-6-yl)-2,6-dimethylpyridin-3-yl)acetic acid], the EC50 (read-out: Activity) is below 0.1 µM.

For `COc1ccc(Cl)cc1CN1CCc2cc(-c3c(C)nc(C)c([C@H](OC(C)(C)C)C(=O)O)c3N3CCC(C)(C)CC3)ccc2C1` [Compound 99, (S)-2-(tert-butoxy)-2-(5-(2-(5-chloro-2-methoxybenzyl)-1,2,3,4-tetrahydroisoquinolin-6-yl)-4-(4,4-dimethylpiperidin-1-yl)-2,6-dimethylpyridin-3-yl)acetic acid], where the note is “read-out: Activity”, the EC50 is below 0.1 µM.

In the case of `COc1cc(Cl)cc(CN2CCc3cc(-c4c(C)nc(C)c([C@H](OC(C)(C)C)C(=O)O)c4N4CCC(C)(C)CC4)ccc3C2)c1` [Compound 100, (S)-2-(tert-butoxy)-2-(5-(2-(3-chloro-5-methoxybenzyl)-1,2,3,4-tetrahydroisoquinolin-6-yl)-4-(4,4-dimethylpiperidin-1-yl)-2,6-dimethylpyridin-3-yl)acetic acid], the EC50 (read-out: Activity) was below 0.1 µM.

With `COc1cc(CN2CCc3cc(-c4c(C)nc(C)c([C@H](OC(C)(C)C)C(=O)O)c4N4CCC(C)(C)CC4)ccc3C2)ccc1F` [Compound 101, (S)-2-(tert-butoxy)-2-(4-(4,4-dimethylpiperidin-1-yl)-5-(2-(4-fluoro-3-methoxybenzyl)-1,2,3,4-tetrahydroisoquinolin-6-yl)-2,6-dimethylpyridin-3-yl)acetic acid], the EC50 (read-out: Activity) is below 0.1 µM.

As to `Cc1nc(C)c([C@H](OC(C)(C)C)C(=O)O)c(N2CCC(C)(C)CC2)c1-c1ccc2c(c1)CCN(Cc1ccc(OC(F)(F)F)cc1)C2` [Compound 102, (S)-2-(tert-butoxy)-2-(4-(4,4-dimethylpiperidin-1-yl)-2,6-dimethyl-5-(2-(4-(trifluoromethoxy)benzyl)-1,2,3,4-tetrahydroisoquinolin-6-yl)pyridin-3-yl)acetic acid], the EC50 (read-out: Activity) was below 0.1 µM.

With `CCOc1cccc(CN2CCc3cc(-c4c(C)nc(C)c([C@H](OC(C)(C)C)C(=O)O)c4N4CCC(C)(C)CC4)ccc3C2)c1` [Compound 103, (S)-2-(tert-butoxy)-2-(4-(4,4-dimethylpiperidin-1-yl)-5-(2-(3-ethoxybenzyl)-1,2,3,4-tetrahydroisoquinolin-6-yl)-2,6-dimethylpyridin-3-yl)acetic acid], the EC50 (read-out: Activity) was below 0.1 µM and the EC50 (read-out: EC50 μM) was found to be 0.012 µM.

Regarding `Cc1nc(C)c([C@H](OC(C)(C)C)C(=O)O)c(N2CCC(C)(C)CC2)c1-c1ccc2c(c1)CCN(Cc1ccc(OC(F)(F)F)c(Cl)c1)C2` [Compound 104, (S)-2-(tert-butoxy)-2-(5-(2-(3-chloro-4-(trifluoromethoxy)benzyl)-1,2,3,4-tetrahydroisoquinolin-6-yl)-4-(4,4-dimethylpiperidin-1-yl)-2,6-dimethylpyridin-3-yl)acetic acid], the EC50 (read-out: Activity) is below 0.1 µM.

Regarding `Cc1nc(C)c([C@H](OC(C)(C)C)C(=O)O)c(N2CCC(C)(C)CC2)c1-c1ccc2c(c1)CCN(Cc1ccc(OC(F)F)cc1F)C2` [Compound 105, (S)-2-(tert-butoxy)-2-(5-(2-(4-(difluoromethoxy)-2-fluorobenzyl)-1,2,3,4-tetrahydroisoquinolin-6-yl)-4-(4,4-dimethylpiperidin-1-yl)-2,6-dimethylpyridin-3-yl)acetic acid], where the note is “read-out: Activity”, the EC50 was below 0.1 µM.
